Legend:
[1] = system: two-spotted mite (Tetranychus urticae Koch); assay: Mite Foliage Spray Test; format: in vivo; design: key: A: excellent control; B: partial control; C: no control; conditions: 500 ppm, six days, adults and nymphs
Experimental: (§1) Suspensions of the test compounds were prepared by dissolving one gram of compound in 50 milliliters of acetone in which had been dissolved 0.1 gram (10 percent of the weight of compound) of an alkylphenoxy polyethoxyethanol surfactant, as an emulsifying or dispersing agent. The resulting solution was mixed into 150 milliliters of water to give roughly 200 milliliters of a suspension containing the compound in finely divided form. The thus-prepared stock suspension contained 0.5 percent by weight of test compound. The test concentrations in parts per million by weight employed in the tests described hereinbelow were obtained by appropriate dilutions of the stock suspension with water. The test procedures were as follows:
Adults and nymphal stages of the two-spotted mite (Tetranychus urticae Koch), reared on Tengergreen bean plants at 80±5 percent relative humidity, were the test organisms. Infested leaves from a stock culture were placed on the primary leaves of two bean plants 6 to 8 inches in height, growing in a 21/2 inch clay pot. 150-200 Mites, a sufficient number for testing, transferred from the excised leaves to the fresh plants in a period of 24 hours. Following the 24 hour transfer period, the excised leaves were removed from the infested plants. The test compounds were formulated by diluting the stock suspension with water to give a suspension containing 500 parts of test compound per million parts of final formulation. The potted plants (one pot per compound) were placed on a revolving turntable and sprayed with 100-110 milliliters of test compound formulation by use of a DeVilbiss spray gun set at 40 psig. air pressure. This application, which lasted 25 seconds, was sufficient to wet the plants to run-off. As a control, 100-110 milliliters of a water solution containing acetone and emulsifier in the same concentrations as the test compound formulation, but containing no test compound, were also sprayed on infested plants. The sprayed plants were held at 80±5 percent relative humidity for six days, after which a mortality count of motile forms was made. Microscopic examination for motile forms was made on the leaves of the test plants. Any individual which was capable of locomotion upon prodding was considering living.
(§2) In these tests the pesticidal activity of the compounds against aphid, mite, Southern Armyworm, Mexican Bean Beetle, and house fly was rated as follows: […]

[2] = system: Mexican bean beetle (Epilachna varivestis, Muls.); assay: Mexican Bean Beetle Leaf Spray Test; format: in vivo; design: key: A: excellent control; B: partial control; C: no control; conditions: 500 ppm, three days, fourth instar larvae
Experimental: as §1
Fourth instar larvae of the Mexican bean beetle (Epilachna varivestis, Muls.), reared on Tendergreen bean plants at a temperature of 80°±5° F. and 50±5 percent relative humidity, were the test insects.
The test compounds were formulated by diluting the stock suspension with water to give a suspension containing 500 parts of test compound per million parts of final formation. Potted Tendergreen bean plants of standard height and age were placed on a revolving turntable and sprayed with 100-110 milliliters of test compound formulated by use of a DeVilbiss spray gun set at 10 psig air pressure. This application, which lasted 25 seconds, was sufficient to wet plants to run-off. As a control, 100-110 milliliters of a water-acetone-emulsifier solution containing no test compound were also sprayed on infested plants. When dry, the paired leaves were separated and each was placed in a 9 centimeter Petri dish lined with moistened filter paper. Five randomly selected larvae were introduced into each dish, and the dishes were closed. The closed dishes were labeled and held at a temperature of 80°±5° F. for three days. Although the larvae could easily consume the leaf within 24 to 48 hours, no more food was added. Larvae which were unable to move the length of the body, even upon stimulation, were considered dead.
as §2

in vivo = conditions: rat, po
Experimental: Certain of these compositions were also evaluated to determine their peroral toxicity to mammals. The animal selected for this experiment was the rat.

[3] = system: house flies (Musca domestica, L.); assay: Fly Bait Test; format: in vivo; design: key: A: excellent control; B: partial control; C: no control; conditions: 500 ppm, 24 hours, adults
Experimental: as §1
Four to six day old adult house flies (Musca domestica, L.), reared according to the specifications of the Chemical Specialities Manufacturing Association (Blue Book, McNair-Dorland Co., N.Y. 1954; pages 243-244, 261) under controlled conditions of 80°±5° F. and 50±5 percent relative humidity, were the test insects. The flies were immobilized by anesthetizing with carbon dioxide and 25 immobilized individuals, males and females, were transferred to a cage consisting of a standard food strainer about 5 inches in diameter which was inverted over a wrapping-paper-covered surface. The test compounds were formulated by diluting the stock suspension with a 10 percent (by weight) sugar solution to give a suspension containing 500 parts of test compound per million parts of final formulation, by weight. Ten milliliters of the test formulation were added to a souffle cup containing a 1-inch square of an absorbent cotton pad. This bait cup was introduced and centered on the blotting paper under the food strainer prior to admitting the anesthetized flies. The caged flies were allowed to feed on the bait for 24 hours, at a temperature of 80°±5° F. and the relative humidity of 50±5 percent.
as §2

[4] = system: southern armyworm (Prodenia eridania, (Cram.)); assay: Southern Armyworm Leaf Spray Test; format: in vivo; design: key: A: excellent control; B: partial control; C: no control; conditions: 500 ppm, three days, larvae
Experimental: as §1
Larvae of the southern armyworm (Prodenia eridania, (Cram.)), reared on Tendergreen bean plants at a temperature of 80°±5° F. and a relative humidity of 50±5 percent, constituted the test insects.
The test compounds were formulated by diluting the stock suspension with water to give a suspension containing 500 parts of test compound per million parts of final formulation. Potted Tendergreen bean plants of standard height and age were placed on a revolving turntable and sprayed with 100-110 milliliters of test compound formulation by use of a DeVilbiss spray gun set at 10 psig air pressure. This application, which lasted 25 seconds, was sufficient to wet plants to run-off. As a control, 100-110 milliliters of a water-acetone-emulsifier solution containing no test compound were also sprayed on infested plants. When dry, the paired leaves were separated and each one was placed in a 9 centimeter Petri dish lined with moistened filter paper. Five randomly selected larvae were introduced into each dish and the dishes were closed. The closed dishes were labeled and held at 80°-85° F. for three days. Although the larvae cound easily consume the whole leaf within 24 hours, no more food was added. Larvae which were unable to move the length of the body, even upon stimulation by prodding, were considered dead. Percent mortality was […] for various concentration levels.
as §2

[5] = system: bean aphid (Aphis fabae Scop.); assay: Bean Aphid Foliage Spray Test; format: in vivo; design: key: A: excellent control; B: partial control; C: no control; conditions: 500 ppm, 24 hours, adults and nymphs
Experimental: as §1
Adults and nymphal stages of the bean aphid (Aphis fabae Scop.) reared on potted dwarf nasturtium plants at 65°-70° F. and 50-70 percent relative humidity, constituted the test insects. For testing purposes, the number of aphids per pot was standardized to 100-150 by trimming plants containing excess aphids.
The test compounds were formulated by diluting the stock suspension with water to give a suspension containing 500 parts of test compound per million parts of final formulation.
The potted plants (one pot per compound tested) infested with 100-150 aphids, were placed on a revolving turntable and sprayed with 100-110 milliliters of test compound formulated by use of a DeVilbiss spray gun set at 40 psig. air pressure. This application, which lasted 25 seconds, was sufficient to wet the plants to run-off. As a control, 100-110 milliliters of a water-acetone-emulsifier solution containing no test compound were also sprayed on infested plants. After spraying, the pots were placed on their sides on a sheet of white standard mimeograph paper which had been previously ruled to facilitate counting. Temperature and humidity in the test room during the 24 hour holding period were 65°-70° F. and 50-70 percent, respectively. Aphids which fell onto the paper and were unable to remain standing after being uprighted were considered dead. Aphids remaining on the plants were observed closely for movement and those which were unable to move the length of the body upon stimulation by prodding were considered dead. Percent mortality was recorded for various concentration levels.
as §2

SMILES | Biological Activity, Mite [1] | Biological Activity, Mexican Bean Beetle [2] | LD50 (in vivo) [mg/kg] | Biological Activity, House Fly [3] | Biological Activity, Southern Armyworm [4] | Biological Activity, Aphid [5]
CNC(=O)ON=C1SCC(=O)NC1C (stereo not drawn) [2-[O-(Methylcarbamoyl)oximino]-3-methyltetrahydro-1,4-thiazin-5-one] | A | A | 5.66 | A | A | B
CNC(=O)ON=C1SC(C)C(=O)NC1(C)C (stereo not drawn) [2-[O-(Methylcarbamoyl)oximino]-3,3,6-trimethyltetrahydro-1,4-thiazin-5-one] | A | A | 0.884 | A | B | A
CC1C(=NOC(=O)N(C)SC(Cl)(Cl)Cl)SCC(=O)N1C (stereo not drawn) [2-[O-(N-Trichloromethanesulfenyl-N-methylcarbamoyl)oximino]-3,4-dimethyltetrahydro-1,4-thiazin-5-one] | A | A | 3.54 | A | B | B

Source: patent US4071627A, “2-Oximino-tetrahydro-1,4-thiazin-5-one compounds and pesticidal carbamate derivatives” (priority 1976, dated 1978)
